Results: patent US6841376B2, “Bistable genetic toggle switch” (Cellicon Technologies, Inc., priority 1998, dated 2005)

Legend:
GFPmut3 expression [1] = test: Demonstration of bistability of toggle and control plasmids; type: cell-based, E. coli strain JM2.300; settings: for GFP EXPRESSION (bistable or monostable behaviour): Toggles, Type IV plasmids; for bistability: Type IV toggle plasmids with RBS1 sequences of varying efficiency
Description: In order to test the limits of bistability of the toggle switch, the al parameter was varied experimentally by inserting RBS1 sequences of varying efficiency into pTAK (Class 1) and pIKE (Class 2) toggle switches of Type IV. Four pTAK series plasmids (Class 1) were constructed with RBS1 sequences D,F,G and H, and two pIKE series plasmids (Class 2) were constructed with RBS1 sequences A and C (Table 6).
The existence of bistability is illustrated in FIG. 12. In this experiment, the toggle and control plasmids were grown in E. coli strain JM2.300 for 23.5 hours. At 6, 11, 18 and 23.5 hours, samples were taken and cells were pelleted, washed once in LB or PBS, and diluted 500-1000 fold into fresh medium with or without inducers as appropriate. […] Cells were washed and diluted into fresh medium with no IPTG and grown an additional 5 hours. […] Cells were diluted into fresh medium and induced at 42° C. (pTAK plasmids only—FIG. 12A) or grown in the presence of 500 ng/ml aTc (pIKE plasmids only—FIG. 12B). […] Cells were washed and diluted into fresh medium with no inducers or returned to standard temperature.
In this experiment, a single culture of pTAK117 cells (initially in the low state) was divided into two groups and diluted. The first group was grown in medium with no inducers (squares) while the second group was grown in medium plus 2 mM IPTG (circles). After 6 hours, cells were pelleted, washed once in LB and diluted 1000 fold into fresh medium with no inducer. Both groups of cells were grown for an additional 22 hours while taking samples and diluting into fresh medium every 6-8.5 hours.

GFPmut3 expression [2] = test: Switching time of toggle switch; type: cell-based, E. coli strain JM2.300
Procedure: In this experiment, pTAK117 cells initially in the low state were diluted in fresh medium and induced with 2 mM IPTG. Separate cultures were grown for 35 minutes to 6 hours before pelleting, washing, and diluting the cells 500 fold in fresh medium with no inducer. Growth was continued until 10.25 hours after the start of the experiment and cells were assayed in the flow cytometer. Conversely, pTAK117 cells initially in the high state were diluted in fresh medium with no inducer. Separate cultures were grown at 41±1° C. for 35 minutes to 6 hours before diluting the cells 500 fold in fresh medium with no inducer. Growth was continued at standard temperature until 10.25 hours after the start of the experiment and cells were assayed in the flow cytometer.
The cell population at four time points is illustrated. As evidenced by the appearance of a bimodal distribution at 4 hours (FIG. 15C), the pTAK117 plasmid began switching to the high state between 3 and 4 hours of IPTG induction. By five hours, the switching was nearly complete. By six hours, the switching was complete (FIGS. 15A and 15C). On the other hand, switching from the high state to the low state was completed in 35 minutes or less (FIG. 15B). In this experiment, the primary determinant of switching time appears to be the rate of destruction of the expressed transcribed repressor protein. […]

GFPmut3 expression [3] = test: Toggle switch induction threshold (steady-state gene expression after 17 hour IPTG induction); type: cell-based, E. coli strain JM2.300; settings: 17 hours in 13 different concentrations of IPTG
Procedure: This was tested experimentally. In this experiment, pTAK117 (initially in the low state) and pTAK102 (as a control) were grown in 13 different concentrations of IPTG for 17 hours, diluting twice (at 6 and 12.5 hours) into fresh medium with the same IPTG concentration. The cells were grown for this length of time in order to ensure that they reached steady-state expression levels. […] Point 1 was taken from separate experiments measuring the high state of pTAK117 with no inducer. Points 3a and 3b are the high and low modes of a bimodally distributed cell population. The bimodality occurred apparently due to natural fluctuations in gene expression and the close proximity of the toggle switch to its bifurcation point. Induction of the pTAK102 control has the familiar sigmoidal shape (triangles). […] This discontinuity is referred to as a saddle-node bifurcation.

GFP expression = test: Flow-cytometer assay of gene expression and promoter strength (GFP expression by plasmids); type: cell-based, E. coli strain JM2.300; settings: repressor expressed from Ptrc-2-E; 14,300/2.5
Procedure: The host cell for all promoter assays and toggle switch experiments was E. coli strain JM2.300 [λ-, lacI22, rpsLl35 (StrR), thi-1] (CGSC strain 5002). JM2.300, which contains few mutations and is a fast growing strain that can tolerate enormous overexpression of plasmid-bound genes. Because JM2.300 contains no λ repressor and carries a non-functional Lac repressor (lacI22), it is considered to be a suitable host for the toggle switch.
All cells were grown in LB medium (Difco) with 100 μg/ml ampicillin plus inducers as indicated in the text. All Type I and pIKE series plasmids were grown at 37±1° C., unless otherwise indicated. All pTAK series plasmids were grown at 32±1° C. except during thermal induction. […]
The following expression data was collected using a Becton-Dickinson FACSCalibur flow cytometer with a 488 nm argon excitation laser and a 515-545 nm emission filter. […] Cells were assayed at low flow rate and fluorescence was calibrated using InSpeck Green fluorescent beads (Molecular Probes). […] All flow data were converted to ASCII format using MFI (E. Martz, University of Massachusetts, Amherst, available at http://marlin.bio.umass.edu/mcbfacs/flowcat.html\##mfi) and analyzed with Matlab (Mathworks).
The strengths, in calibrated fluorescence units, of the promoter/RBS pairs used to construct the toggle switches are listed in Table 6. […]

OL1-OL3 = settings: λ to OL1-OL3; cited from earlier work
[4] = test system: hybrid promoter: E. coli LexA operator sequence spliced into the HSV tk promoter; settings: mammalian cells that synthesized the repressor; cited from earlier work

In the case of “pIKE105: Class 2 Type IV toggle plasmid (SEQ ID NO: 16), PLtetO-1, RBS1 A, lacI and tetR”, the “GFP EXPRESSION (bistable or monostable behaviour)” value (from here on “GFP EXPRESSION”) (GFPmut3 expression [1]) is reported as “Monostable”, the bistability (GFPmut3 expression [1]) is reported as “did not exhibit bistability” and the “state after removal of IPTG” value (GFPmut3 expression [1]; washed, diluted into fresh medium with no IPTG, additional 5 hours) is reported as “returned to the low state”.

For “pIKE107: Class 2 Type IV toggle switch plasmid (SEQ ID NO: 17), PLtetO-1, RBS1 C”, the “GFP EXPRESSION” value (GFPmut3 expression [1]) was “Bistable” and the bistability (GFPmut3 expression [1]) was “exhibited bistability”.

With “pTAK117: Class 1 Type IV toggle switch plasmid (SEQ ID NO: 12), PLslcon, RBS1 D, lacI and cIts” the “switching from low to high state complete” value (GFPmut3 expression [2]; 2 mM IPTG induction) was “six”, the “switching from the high state to the low state completed” value (GFPmut3 expression [2]; thermal induction at 41±1° C.) was at most 35 min and the “shape of IPTG induction curve” value (GFPmut3 expression [3]) was “quasi-discontinuous jump to the high state”. The “IPTG concentration at which toggle exhibits quasi-discontinuous jump to the high expression state” value (GFPmut3 expression [3]; initially in the low state) was 40 µM, the “long-term stability of the two states” value (GFPmut3 expression [1]; 6 hours with or without 2 mM IPTG, then 22 hours with no inducer) was “remained in their initial high or low states for the entire 22 hour period” and the “GFP EXPRESSION” value (GFPmut3 expression [1]) was “Bistable”.

With “pTAK130: Class 1 Type IV toggle switch plasmid (SEQ ID NO: 15), PLslcon, RBS1 G” the “GFP EXPRESSION” value (GFPmut3 expression [1]) was “Bistable”.

With “pTAK131: Class 1 Type IV toggle switch plasmid (SEQ ID NO: 13), PLslcon, RBS1 F” the “GFP EXPRESSION” value (GFPmut3 expression [1]) was “Bistable”.

For “pTAK132: Class 1 Type IV toggle switch plasmid (SEQ ID NO: 14), PLslcon, RBS1 H”, the “GFP EXPRESSION” value (GFPmut3 expression [1]) was “Bistable”.

For “λ repressor (cI): bacteriophage λ repressor protein that represses the PL promoter”, the “repression of the PLSlcon-D promoter” value (GFP expression) is listed as about 6000 fold and the Kd (OL1-OL3) is listed as about 1 nM.

B1: E. coli LexA repressor protein: E. coli repressor protein that represses transcription at operator site Olex (protein, UniProt P0A7C2 1-202, looked up)
LexA repressor: MKALTARQQEVFDLIRDHISQTGMPPTRAEIAQRLGFRSPNAAEEHLKALARKGVIEIVSGASRGIRLLQEEEEGLPLVGRVAAGEPLLAQQHIEGHYQVDPSLFKPNADFLLRVSGMSMKDIGIMDGDLLAVHKTQDVRNGQVVVARIDDEVTVKRLKKQGNKVELLPENSEFKPIVVDLRQQSFTIEGLAVGVIRNGDWL
In the case of B1, the “reduction of expression from hybrid LexA operator / HSV tk promoter” value [4] is given as 10 fold.
